Data: patent US9249129B2, “Morpholino substituted urea derivatives as mTOR inhibitors” (CELLZOME LIMITED, priority 2010, dated 2016)
Where two headings read alike, the source gives them in different places.

What was measured:
[1] = biological target: T1, PI3Kγ (Homo sapiens, UniProt P48736); assay: kinobeads assay, PI3K gamma (dot blot detection); type: binding; settings: Table 4, read-out: Inhibition values (IC50) PI3Kg
T1 construct: endogenous in cells; host or cells: Jurkat cells (ATCC TIB-152) lysate, the only lysate described
T1 sequence (P48736 whole entry): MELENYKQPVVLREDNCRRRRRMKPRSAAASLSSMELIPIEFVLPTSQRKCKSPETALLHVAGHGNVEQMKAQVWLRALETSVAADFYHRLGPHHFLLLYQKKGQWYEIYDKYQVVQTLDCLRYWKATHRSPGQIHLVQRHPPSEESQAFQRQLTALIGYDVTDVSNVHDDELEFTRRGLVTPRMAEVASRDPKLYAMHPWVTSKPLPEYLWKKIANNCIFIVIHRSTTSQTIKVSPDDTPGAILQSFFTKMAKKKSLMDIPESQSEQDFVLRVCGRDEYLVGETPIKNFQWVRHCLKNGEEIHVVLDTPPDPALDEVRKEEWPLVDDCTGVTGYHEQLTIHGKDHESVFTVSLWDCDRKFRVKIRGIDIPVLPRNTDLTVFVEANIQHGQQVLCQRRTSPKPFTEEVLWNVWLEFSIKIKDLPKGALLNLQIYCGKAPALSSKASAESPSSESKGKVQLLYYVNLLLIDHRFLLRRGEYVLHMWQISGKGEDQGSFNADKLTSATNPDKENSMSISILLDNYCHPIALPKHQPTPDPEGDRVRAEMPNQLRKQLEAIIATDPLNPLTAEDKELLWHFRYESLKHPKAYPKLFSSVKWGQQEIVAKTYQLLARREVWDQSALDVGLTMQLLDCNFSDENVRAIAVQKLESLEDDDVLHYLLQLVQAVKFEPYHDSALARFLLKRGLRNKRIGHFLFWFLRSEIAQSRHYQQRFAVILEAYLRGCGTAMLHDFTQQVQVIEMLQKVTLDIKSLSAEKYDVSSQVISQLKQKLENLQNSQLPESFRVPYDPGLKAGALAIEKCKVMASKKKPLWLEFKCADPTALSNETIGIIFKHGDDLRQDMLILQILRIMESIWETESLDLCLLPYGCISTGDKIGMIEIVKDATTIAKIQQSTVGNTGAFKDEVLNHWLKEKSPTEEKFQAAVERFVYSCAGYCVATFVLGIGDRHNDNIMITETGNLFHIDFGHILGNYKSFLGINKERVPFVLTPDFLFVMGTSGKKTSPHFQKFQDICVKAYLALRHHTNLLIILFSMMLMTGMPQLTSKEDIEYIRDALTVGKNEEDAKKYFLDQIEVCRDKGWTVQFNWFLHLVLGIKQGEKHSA

[2] = system: S6RP serine-240/244 phosphorylation in HEK293T/17 cells; assay: In vitro phospho-S6 cellular assay (pS6RP S240/244); type: cell-based; settings: Homo sapiens, Table 6, 2 hours, S6RP Ser240/244, read-out: pS6 (phospho-S6 cell assay data, activity level)
Text: In Vitro Phospho-S6 and Phospho-Akt Cellular Assay
Activation of mTOR signaling results in phosphorylation of several downstream targets. In cells, mTOR exists in two different protein complexes. The mTOR Complex-1 (mTORC1) phosphorylates and activates S6 Kinase 1 (S6K1) and S6 Kinase 2 (S6K2) (also known as p70S6K) which then phosphorylate S6 Ribosomal Protein (S6RP) (also known as RPS6). S6RP is phosphorylated on serine 235, serine 236, serine 240 and serine 244 by both pS6K1 and pS6K2. The mTOR Complex-2 (mTORC2) phosphorylates AKT on serine 473 which activates the AKT signaling pathway.
The assay measures a test compound's inhibition of S6RP serine-240/244 phosphorylation and inhibition of Akt serine-473 phosphorylation in human embryonic kidney derived HEK293T/17 cells (ATCC CRL-11268).
The HEK293T/17 cell line is maintained in DMEM media (Invitrogen catalogue number 41965-039) supplemented with 10% FCS at 37° C. in a 5% CO2 humidified incubator.
Cells are seeded in 96-well plates at 40,000 cells/well (pS6RP S240/244 assay) or 80,000 cells/well (pAkt 5473 assay) in 90 μl growth media (DMEM, 2% FCS). Plates are incubated for 1 hour in a humidified incubator to allow the cells to adhere. Cells are treated with 8 concentrations of test compounds or DMSO alone for controls (final DMSO concentration 0.1%) and incubated at 37° C. for 2 hours. Then 20 μl of 5× concentrated lysis buffer (750 mM NaCl, 100 mM Tris pH7.4, 5 mM EDTA, 5 mM EGTA, 5% Triton X-100) is added, plates are sealed and incubated for 15 minutes at 4° C. with gentle shaking. After cell lysis, 25 μl cell lysate is transferred to a MesoScale plate coated with an antibody to pS6RP Ser240/244 (MesoScale Discovery K150DGD-3) or an antibody to pAkt Ser 473 (MesoScale Discovery K151DGD-3). Plates have been blocked before by incubation with 150 μl MesoScale Discovery Blocking Solution-A for 1 hour at room temperature followed by washing with 150 μl 1× Tris wash buffer per well. After the transfer of the cell lysate to the MSD plate, the pS6RP (or pAkt) protein is captured on the coated antibody by incubation at room temperature for 1 hour with gentle shaking. After the capture step the plate is washed three times with 150 μl of 1× Tris wash buffer per well. Then 25 μl detection antibody conjugated with a Sulfo-Tag is added and incubated for 1 hour at room temperature with gentle shaking. Subsequently the antibody solution is removed and the plate is washed 3 times with 150 μl 1× Tris wash buffer per well and 150 μl Read buffer is added. The plates are analysed on a MSD 2400 Plate Reader (MesoScale Discovery). Data analysis is performed using nonlinear regression for a sigmoidal dose-response with a variable slope.

[3] = biological target: T2, PI3K delta (PI3Kd) (Homo sapiens, UniProt O00329); assay: kinobeads assay, PI3K delta (dot blot detection); type: binding
T2 construct: endogenous in cells; host or cells: Jurkat cells (ATCC TIB-152, clone E6-1), lysate
T2 sequence (O00329 whole entry): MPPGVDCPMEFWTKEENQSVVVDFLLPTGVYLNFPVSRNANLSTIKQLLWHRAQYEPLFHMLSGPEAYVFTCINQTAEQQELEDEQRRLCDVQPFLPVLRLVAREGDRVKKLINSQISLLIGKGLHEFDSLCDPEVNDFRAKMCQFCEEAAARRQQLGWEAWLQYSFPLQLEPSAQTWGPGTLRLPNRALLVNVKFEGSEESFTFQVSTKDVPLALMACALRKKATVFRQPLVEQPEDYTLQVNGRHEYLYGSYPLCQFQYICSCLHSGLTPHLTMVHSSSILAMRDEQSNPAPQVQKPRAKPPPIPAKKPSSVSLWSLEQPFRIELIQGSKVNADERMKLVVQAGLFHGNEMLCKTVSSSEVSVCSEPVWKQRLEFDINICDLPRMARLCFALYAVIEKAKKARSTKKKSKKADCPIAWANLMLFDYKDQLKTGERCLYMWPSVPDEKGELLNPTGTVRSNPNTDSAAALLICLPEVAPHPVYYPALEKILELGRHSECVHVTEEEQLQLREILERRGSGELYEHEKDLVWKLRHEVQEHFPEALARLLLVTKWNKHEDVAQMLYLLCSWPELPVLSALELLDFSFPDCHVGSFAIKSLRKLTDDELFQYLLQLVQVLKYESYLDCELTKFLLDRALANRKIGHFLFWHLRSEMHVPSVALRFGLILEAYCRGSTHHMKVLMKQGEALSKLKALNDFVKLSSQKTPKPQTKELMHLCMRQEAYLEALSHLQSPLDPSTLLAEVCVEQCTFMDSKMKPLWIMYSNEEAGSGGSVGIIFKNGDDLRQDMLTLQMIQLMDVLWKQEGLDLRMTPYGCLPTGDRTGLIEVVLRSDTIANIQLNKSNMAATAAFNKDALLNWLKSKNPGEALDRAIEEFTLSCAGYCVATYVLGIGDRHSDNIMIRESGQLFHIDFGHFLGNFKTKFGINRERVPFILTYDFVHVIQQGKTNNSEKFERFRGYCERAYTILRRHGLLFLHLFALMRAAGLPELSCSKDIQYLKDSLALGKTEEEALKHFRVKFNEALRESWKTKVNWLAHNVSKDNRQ
T2 sequence (P27986 whole entry partner): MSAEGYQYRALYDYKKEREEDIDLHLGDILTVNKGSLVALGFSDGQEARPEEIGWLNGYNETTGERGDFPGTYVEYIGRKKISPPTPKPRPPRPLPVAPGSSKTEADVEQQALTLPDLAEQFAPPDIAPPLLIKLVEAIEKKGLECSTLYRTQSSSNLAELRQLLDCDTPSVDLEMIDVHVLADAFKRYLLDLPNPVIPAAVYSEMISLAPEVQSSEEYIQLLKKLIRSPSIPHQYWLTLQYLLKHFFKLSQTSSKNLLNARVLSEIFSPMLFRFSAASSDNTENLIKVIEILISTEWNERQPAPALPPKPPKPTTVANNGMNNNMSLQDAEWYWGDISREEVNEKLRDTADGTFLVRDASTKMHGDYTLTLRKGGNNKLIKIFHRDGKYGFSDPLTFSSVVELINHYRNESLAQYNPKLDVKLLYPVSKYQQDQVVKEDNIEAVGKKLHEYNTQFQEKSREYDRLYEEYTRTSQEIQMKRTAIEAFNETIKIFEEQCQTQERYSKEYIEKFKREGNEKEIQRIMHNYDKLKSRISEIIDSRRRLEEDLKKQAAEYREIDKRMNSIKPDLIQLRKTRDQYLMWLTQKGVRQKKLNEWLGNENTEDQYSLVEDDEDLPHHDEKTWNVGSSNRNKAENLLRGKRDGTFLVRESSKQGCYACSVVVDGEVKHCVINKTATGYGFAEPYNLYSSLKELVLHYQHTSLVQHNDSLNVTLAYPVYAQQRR
Description: (§1) The compounds of the present invention as described were tested in the mTOR kinobeads assay as described below. Briefly, test compounds (at various concentrations) and the affinity matrix (1:1 mixture of beads with immobilized phenylthiazole ligand 1 and beads with immobilized phenylmorpholin-chromen ligand; WO 2009/098021) were added to cell lysate aliquots and allowed to bind to the proteins in the lysate sample. After the incubation time the beads with captured proteins were separated from the lysate. Bound proteins were then eluted and the presence of mTOR, PI3K delta (PI3 Kd) and DNA-dependent protein kinase (DNA-PK) was detected and quantified using a specific antibody in a dot blot procedure and the Odyssey infrared detection system. Dose response curves for individual kinases were generated and IC50 values calculated. Kinobeads assays for PI3 kinases (WO-A 2008/015013) and for kinase selectivity profiling (WO 2009/098021) have been previously described.
(§2) The affinity matrix (beads with immobilized phenylmorpholin-chromen ligand) was washed two times with 15 ml of 1×DP buffer containing 0.2% NP40 (IGEPAL® CA-630, Sigma, #13021) and then resupended in 5.5 ml of 1×DP buffer containing 0.2% NP40 (10% beads slurry).
(§3) 5×DP buffer: 250 mM Tris-HCl pH 7.4, 25% Glycerol, 7.5 mM MgCl2, 750 mM NaCl, 5 mM Na3VO4, filter the 5×-lysis buffer through 0.22 μm filter and store in aliquots at −80° C. The 5×DP buffer is diluted to 1×DP buffer containing 1 mM DTT and 25 mM NaF.
(§4) Stock solutions of test compounds were prepared in DMSO. In a 96 well plate 30 μl solution of diluted test compounds at 5 mM in DMSO were prepared. Starting with this solution a 1:3 dilution series (9 steps) was prepared. For control experiments (no test compound) a buffer containing 2% DMSO was used. Compound CZC00018052 served as a positive control (PI-103; Calbiochem catalogue number 528100).
(§5) Jurkat cells (ATCC catalogue number TIB-152 Jurkat, clone E6-1) were grown in 1 litre Spinner flasks (Integra Biosciences, #182101) in suspension in RPMI 1640 medium (Invitrogen, #21875-034) supplemented with 10% Fetal Bovine Serum (Invitrogen) at a density between 0.15×10^6 and 1.2×10^6 cells/ml. Cells were harvested by centrifugation, washed once with 1×PBS buffer (Invitrogen, #14190-094) and cell pellets were frozen in liquid nitrogen and subsequently stored at −80° C.
(§6) Jurkat cells were homogenized in a Potter S homogenizer in lysis buffer: 50 mM Tris-HCl, 0.8% NP40, 5% glycerol, 150 mM NaCl, 1.5 mM MgCl2, 25 mM NaF, 1 mM sodium vanadate, 1 mM DTT, pH 7.5. One complete EDTA-free tablet (protease inhibitor cocktail, Roche Diagnostics, 1873580) per 25 ml buffer was added. The material was dounced 10 times using a mechanized POTTER S, transferred to 50 ml falcon tubes, incubated for 30 minutes on ice and spun down for 10 min at 20,000 g at 4° C. (10,000 rpm in Sorvall SLA600, precooled). The supernatant was transferred to an ultracentrifuge (UZ)-polycarbonate tube (Beckmann, 355654) and spun for 1 hour at 100.000 g at 4° C. (33.500 rpm in Ti50.2, precooled). The supernatant was transferred again to a fresh 50 ml falcon tube, the protein concentration was determined by a Bradford assay (BioRad) and samples containing 50 mg of protein per aliquot were prepared. The samples were immediately used for experiments or frozen in liquid nitrogen and stored frozen at −80° C.
(§7) Jurkat cell lysate (approximately 50 mg protein per plate) was thawed in a water bath at room temperature and then kept on ice. To the thawed cell lysate 1×DP 0.8% NP40 buffer containing protease inhibitors (1 tablet for 25 ml buffer; EDTA-free protease inhibitor cocktail; Roche Diagnostics 1873580) was added in order to reach a final protein concentration of 5 mg/ml total protein. The diluted cell lysate was stored on ice. […]

[4] = biological target: T3, mTOR (Homo sapiens, UniProt P42345); assay: mTOR kinobeads assay (dot blot detection); type: binding
T3 construct: endogenous in cells; host or cells: Jurkat cells (ATCC TIB-152, clone E6-1), lysate
Description: as §1, §2, §3, §4, §5, §6, §7

[5] = biological target: T4, PI3Kβ (Homo sapiens, UniProt P42338); assay: kinobeads assay, PI3K beta (dot blot detection); type: binding; settings: Table 4, read-out: Inhibition values (IC50) PI3Kb
T4 construct: endogenous in cells; host or cells: Jurkat cells (ATCC TIB-152) lysate, the only lysate described
T4 sequence (P42338 whole entry): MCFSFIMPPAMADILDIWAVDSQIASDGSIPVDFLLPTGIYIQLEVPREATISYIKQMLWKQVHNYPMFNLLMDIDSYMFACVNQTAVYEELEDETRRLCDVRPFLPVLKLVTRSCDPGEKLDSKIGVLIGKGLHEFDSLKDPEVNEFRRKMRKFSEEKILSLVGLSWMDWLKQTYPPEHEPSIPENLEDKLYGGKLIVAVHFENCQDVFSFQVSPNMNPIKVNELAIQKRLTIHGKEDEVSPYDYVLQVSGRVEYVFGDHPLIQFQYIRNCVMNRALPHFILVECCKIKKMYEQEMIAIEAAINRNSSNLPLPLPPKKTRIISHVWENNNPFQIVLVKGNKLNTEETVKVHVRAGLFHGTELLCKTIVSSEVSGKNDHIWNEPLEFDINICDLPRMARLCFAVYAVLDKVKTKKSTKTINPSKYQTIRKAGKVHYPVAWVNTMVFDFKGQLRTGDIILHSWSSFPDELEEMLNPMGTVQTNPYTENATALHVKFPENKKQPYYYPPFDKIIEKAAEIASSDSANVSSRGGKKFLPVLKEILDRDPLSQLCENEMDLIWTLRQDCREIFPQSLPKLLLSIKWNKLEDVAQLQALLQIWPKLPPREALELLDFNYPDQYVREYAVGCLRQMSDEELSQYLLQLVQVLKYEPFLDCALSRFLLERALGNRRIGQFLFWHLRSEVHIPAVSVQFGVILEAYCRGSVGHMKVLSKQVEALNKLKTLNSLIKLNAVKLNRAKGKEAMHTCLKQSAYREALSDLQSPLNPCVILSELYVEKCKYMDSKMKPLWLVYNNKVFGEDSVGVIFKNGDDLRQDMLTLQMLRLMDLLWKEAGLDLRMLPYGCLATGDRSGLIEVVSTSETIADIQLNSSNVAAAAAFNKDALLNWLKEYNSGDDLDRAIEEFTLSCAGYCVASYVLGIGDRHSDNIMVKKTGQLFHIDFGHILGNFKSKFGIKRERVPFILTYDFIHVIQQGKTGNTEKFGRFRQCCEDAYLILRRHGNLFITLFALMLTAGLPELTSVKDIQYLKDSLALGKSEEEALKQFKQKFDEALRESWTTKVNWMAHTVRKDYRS
T4 sequence (P27986 whole entry partner): as the sequence (P27986 whole entry partner) above

[6] = biological target: T5, PI3Kα (Homo sapiens, UniProt P42336); assay: kinobeads assay, PI3K alpha (dot blot detection); type: binding; settings: Table 4, read-out: Inhibition values (IC50) PI3Ka
T5 construct: endogenous in cells; host or cells: Jurkat cells (ATCC TIB-152) lysate, the only lysate described
T5 sequence (P42336 whole entry): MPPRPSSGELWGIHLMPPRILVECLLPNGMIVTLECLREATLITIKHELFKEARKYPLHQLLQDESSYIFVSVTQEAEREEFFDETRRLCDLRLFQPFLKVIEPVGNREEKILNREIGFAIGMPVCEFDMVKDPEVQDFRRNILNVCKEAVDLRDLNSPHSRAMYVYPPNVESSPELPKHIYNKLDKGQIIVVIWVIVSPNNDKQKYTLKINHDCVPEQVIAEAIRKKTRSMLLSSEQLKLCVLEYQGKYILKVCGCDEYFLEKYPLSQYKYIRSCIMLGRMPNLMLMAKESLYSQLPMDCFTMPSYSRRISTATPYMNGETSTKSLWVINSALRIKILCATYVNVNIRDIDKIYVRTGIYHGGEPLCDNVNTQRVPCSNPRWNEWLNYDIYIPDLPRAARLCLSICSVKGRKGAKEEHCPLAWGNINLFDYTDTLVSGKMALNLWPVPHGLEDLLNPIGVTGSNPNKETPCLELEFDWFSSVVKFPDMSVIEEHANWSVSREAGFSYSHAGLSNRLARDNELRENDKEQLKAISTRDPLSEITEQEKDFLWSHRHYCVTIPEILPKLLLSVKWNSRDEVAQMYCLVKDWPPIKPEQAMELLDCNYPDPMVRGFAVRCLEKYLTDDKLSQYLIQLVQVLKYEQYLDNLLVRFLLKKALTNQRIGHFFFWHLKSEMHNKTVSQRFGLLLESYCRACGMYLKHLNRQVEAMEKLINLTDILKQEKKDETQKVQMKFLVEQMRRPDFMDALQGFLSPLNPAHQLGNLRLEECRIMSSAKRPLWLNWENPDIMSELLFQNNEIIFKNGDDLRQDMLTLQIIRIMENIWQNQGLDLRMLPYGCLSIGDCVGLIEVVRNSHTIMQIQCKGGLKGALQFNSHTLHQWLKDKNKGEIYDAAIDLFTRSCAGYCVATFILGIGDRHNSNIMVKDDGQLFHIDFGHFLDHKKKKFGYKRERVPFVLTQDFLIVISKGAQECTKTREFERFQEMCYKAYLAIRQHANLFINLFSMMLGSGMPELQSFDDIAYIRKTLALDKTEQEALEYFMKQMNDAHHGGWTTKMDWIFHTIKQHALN
T5 sequence (P27986 whole entry partner): as the sequence (P27986 whole entry partner) above

[7] = biological target: T6, DNA-dependent protein kinase (DNA-PK) (Homo sapiens, UniProt P78527); assay: kinobeads assay, DNA-PK (dot blot detection); type: binding
T6 construct: endogenous in cells; host or cells: Jurkat cells (ATCC TIB-152, clone E6-1), lysate
Description: as §1, §2, §3, §4, §5, §6, §7

[8] = Table 2, Jurkat cell lysate, read-out: Inhibition values (IC50) PI3Kd
[9] = Table 4, read-out: Inhibition values (IC50) PI3Kd
[10] = Table 2, Jurkat cell lysate, read-out: Inhibition values (IC50) mTor
[11] = Table 4, read-out: Inhibition values (IC50) mTOR
[12] = Table 2, Jurkat cell lysate, read-out: Inhibition values (IC50) DNAPK
[13] = Table 4, read-out: Inhibition values (IC50) DNAPK

Compound | IC50 [1] | IC50 [3, 8] | IC50 [3, 9] | IC50 [4, 10] | IC50 [4, 11] | IC50 [5] | IC50 [6] | IC50 [7, 12] | IC50 [7, 13] | IC50 [2]
O=C(NCCF)Nc1ccc(-c2nccc(N3CC4CCC(C3)O4)n2)cc1 [Example 52, 1-(4-(4-(8-oxa-3-azabicyclo[3.2.1]octan-3-yl)pyrimidin-2-yl)phenyl)-3-(2-fluoroethyl)urea] | ≥ 10 µM | ≥ 10 µM | ≥ 10 µM | 0.1 to 1 µM | 0.1 to 1 µM | ≥ 10 µM | ≥ 10 µM | 1 to 10 µM | 1 to 10 µM | 0.1 to 1 µM
C[C@H]1COCCN1c1nccc(-c2ccc(NC(=O)NCCO)cc2)n1 [Example 58, (S)-1-(2-hydroxyethyl)-3-(4-(2-(3-methylmorpholino)pyrimidin-4-yl)phenyl)urea] | ≥ 10 µM | ≥ 10 µM | ≥ 10 µM | 1 to 10 µM | 1 to 10 µM | ≥ 10 µM | ≥ 10 µM | ≥ 10 µM | ≥ 10 µM | 0.1 to 1 µM
CCNC(=O)Nc1ccc(-c2ccnc(N3CCOCC3)n2)cc1 [Example 29, 1-ethyl-3-(4-(2-morpholinopyrimidin-4-yl)phenyl)urea] | ≥ 10 µM | ≥ 10 µM | ≥ 10 µM | 1 to 10 µM | 0.1 to 1 µM | 1 to 10 µM | 1 to 10 µM | 1 to 10 µM | 1 to 10 µM | 0.1 to 1 µM
C[C@H](CO)NC(=O)Nc1ccc(-c2cc(-c3cc(F)ccc3S(C)(=O)=O)nc(N3CCOC[C@@H]3C)n2)cc1 [Example 73, 1-(4-(6-(5-fluoro-2-(methylsulfonyl)phenyl)-2-((S)-3-methylmorpholino)pyrimidin-4-yl)phenyl)-3-((R)-1-hydroxypropan-2-yl)urea] | ≥ 10 µM |  | ≥ 10 µM |  | 0.1 to 1 µM | ≥ 10 µM | ≥ 10 µM |  | ≥ 10 µM | < 0.1 µM
C[C@H]1COCCN1c1cc(-c2cncc(S(C)(=O)=O)c2)nc(-c2ccc(NC(=O)NC3CC3)cc2)n1 [Example 22, (S)-1-cyclopropyl-3-(4-(4-(3-methylmorpholino)-6-(5-(methylsulfonyl)pyridin-3-yl)pyrimidin-2-yl)phenyl)urea] |  | ≥ 10 µM | ≥ 10 µM | 1 to 10 µM | 1 to 10 µM |  |  | ≥ 10 µM | ≥ 10 µM | 0.1 to 1 µM
CC(=O)NCCNC(=O)Nc1ccc(-c2cc(-c3cc(F)ccc3S(C)(=O)=O)nc(N3CCOC[C@@H]3C)n2)cc1 [Example 85, (S)—N-(2-(3-(4-(6-(5-fluoro-2-(methylsulfonyl)phenyl)-2-(3-methylmorpholino)pyrimidin-4-yl)phenyl)ureido)ethyl)acetamide] | ≥ 10 µM |  | ≥ 10 µM |  | 1 to 10 µM | ≥ 10 µM | ≥ 10 µM |  | ≥ 10 µM | 

Now from value to compound, other results behind:

IC50 [1] | IC50 [3, 8] | IC50 [3, 9] | IC50 [4, 10] | IC50 [4, 11] | IC50 [5] | IC50 [6] | IC50 [7, 12] | IC50 [7, 13] | Compound | IC50 [2]
≥ 10 µM |  | ≥ 10 µM |  | 1 to 10 µM | ≥ 10 µM | ≥ 10 µM |  | ≥ 10 µM | C[C@H]1COCCN1c1nc(-c2ccc(NC(=O)NC3CC3)cc2)cc(-c2ccccc2S(=O)(=O)N2CCCC2)n1 [Example 88, (S)-1-cyclopropyl-3-(4-(2-(3-methylmorpholino)-6-(2-(pyrrolidin-1-ylsulfonyl)phenyl)pyrimidin-4-yl)phenyl)urea] | < 0.1 µM
≥ 10 µM | ≥ 10 µM | ≥ 10 µM | 0.1 to 1 µM | 0.1 to 1 µM | ≥ 10 µM | ≥ 10 µM | 1 to 10 µM | 1 to 10 µM | O=C(Nc1ccc(-c2nccc(N3CC4CCC(C3)O4)n2)cc1)NC1CC1 [Example 48, 1-(4-(4-(8-oxa-3-azabicyclo[3.2.1]octan-3-yl)pyrimidin-2-yl)phenyl)-3-cyclopropylurea] | 0.1 to 1 µM
 | ≥ 10 µM | ≥ 10 µM | 1 to 10 µM | 1 to 10 µM |  |  | ≥ 10 µM | ≥ 10 µM | CNC(=O)Nc1ccc(-c2nccc(N3CCOC[C@@H]3C)n2)cc1 [Example 34, (S)-1-methyl-3-(4-(4-(3-methylmorpholino)pyrimidin-2-yl)phenyl)urea] | 0.1 to 1 µM
